A short description of assay [1]: viability loss in HepG2 hepatoma cells – cell-based, luminescence, dry powder, set 12, cytotoxicity control, dose response (AID 743471). Particulars: HepG2 viability, ATP luminescence (CellTiter-Glo), 72 h. In general terms: Cellular ATP, detected with luciferase, serves as a proxy for viable cell number.
For assay [2], the system named is HepG2 viability, ATP luminescence (CellTiter-Glo), 72 h. The description is as above.

Active and inactive are the calls of the source.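 How the source made its calls: active means fitted curve drops past -35% activity change at a concentration up to twice the top valid tested dose; inactive means the rest, including activity in the opposite direction.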

Regarding `O=C(Cc1ccc(-c2ccc(OCCN3CCOCC3)cc2)cn1)NCc1ccccc1`, the activity change, negative = cytotoxicity in assay [1] (at 12 µM (top of the series)) was -10.2% (inactive).
Take `COc1ccc(CNc2nc(N3CCC[C@H]3CO)ncc2C(=O)NCc2ncccn2)cc1Cl`: in assay [1] (at 26 µM (top of the series)), the activity change, negative = cytotoxicity was -10.6% (inactive).
`CC1(C)CC(c2nc(-c3ccc4ccc(-c5ccccc5)nc4c3)c3c(N)nccn23)C1`: the AC35 in assay [2] is 7.54 µM.
For the compound `COc1ccc(C2CNC(=O)C2)cc1OC1CCCC1` (centres undefined), the activity change, negative = cytotoxicity in assay [1] (at 26 µM (top of the series)) was 15.7% (inactive).
In the case of `Cn1cc(-c2ccncc2)c(-c2ccc(OCc3ccc4ccccc4n3)cc2)n1`, in assay [2], the AC35 was 12.9 µM.
As for `COc1ccc(C2=Nn3c(nnc3-c3ccccc3Cl)SC2)cc1OC`, the AC35 in assay [2] is 15.5 µM.
For the compound `Cc1ccccc1C1C(C#N)=C(N)Oc2cc(N)ccc21` (centres undefined), the activity change, negative = cytotoxicity in assay [1] (at 26 µM (top of the series)) was 0.564% (inactive).
In the case of `COc1ccc(-c2cc(NC(C)=O)c3ncc(-c4ccc(OC)c(OC)c4)n3c2)cc1`, the AC35 in assay [2] is 17.9 µM.
`CN(C)c1ccc2c(c1)OC(N)=C(C#N)C2c1cccc(F)c1` (centres undefined): in assay [1] (at 26 µM (top of the series)), the activity change, negative = cytotoxicity is -8.25% (inactive).
With `COc1ccc(C2=Nn3c(nnc3-c3ccccc3OC)SC2)cc1OC`, the AC35 in assay [2] is 0.53 µM.
Turning to `N#CC1=C(N)Oc2cc3c(cc2C1c1cccc(Br)c1)OCO3` (centres undefined), in assay [1] (at 8 µM (top of the series)), the activity change, negative = cytotoxicity was -4.83% (inactive).
For the compound `COc1ccc(S(=O)(=O)N(C(C)=O)c2ccc(OC(C)=O)c3ccccc23)cc1[N+](=O)[O-]`, the activity change, negative = cytotoxicity in assay [1] (at 26 µM (top of the series)) was -15.5% (inactive).
For the compound `CCC(C)C(=O)OC1CC(C)C=C2C=CC(C)C(CCC(O)CC(O)CC(=O)O)C21` (centres undefined), the AC35 in assay [2] was 88 µM.
Consider `N#Cc1ccc(-c2ccc3c(c2)[C@H]2[C@H](CCN2S(=O)(=O)c2ccccc2F)[C@@H](CO)N3)cc1`, for which the activity change, negative = cytotoxicity in assay [1] (at 26 µM (top of the series)) is -18.6% (inactive).
Same read-out and setting: as for `N#CC1=C(N)Oc2cc(N)ccc2C1c1cccc(F)c1` (centres undefined), the figure is -15.7% (inactive); as for `N#CC1=C(N)Oc2cc(N)ccc2C1c1ccc(Cl)cc1` (centres undefined), -15.5% (inactive).
On to `C=C([C@@H](O)[C@@H](C)O)[C@@H](OC)[C@]1(C)Cc2cc3cc(O[C@H]4CC(OC5CC(O)C(O)C(C)O5)C(O)C(C)O4)cc(O)c3c(O)c2C(=O)[C@H]1OC1CC(OC2CC(OC3CC(C)(O)C(O)C(C)O3)C(O)C(C)O2)C(O)C(C)O1` (some centres undefined), for which, in assay [2], the AC35 is 0.116 µM.
Same read-out and setting: the figure for `Clc1ccc(-c2cnc3ccc(-c4ccccc4)cn23)cc1` is 3.58 µM.
As to `Cc1cccc(C2C(C#N)=C(N)Oc3cc(N)ccc32)c1` (centres undefined), the activity change, negative = cytotoxicity in assay [1] (at 26 µM (top of the series)) is -14.7% (inactive).
Turning to `COc1ccc(C2=Nn3c(nnc3-c3ccccc3F)SC2)cc1OC`, in assay [2], the AC35 was 20.8 µM.
Regarding `N#CC1=C(N)Oc2cc(OC(=O)c3ccccc3)ccc2C1c1cccc(Br)c1` (centres undefined), in assay [1] (at 26 µM (top of the series)), the activity change, negative = cytotoxicity was -8.31% (inactive).
Consider `COc1cccc(C2C(C#N)=C(N)Oc3cc(N)ccc32)c1` (centres undefined), for which the activity change, negative = cytotoxicity in assay [1] (at 26 µM (top of the series)) was -11.2% (inactive).
Consider `CN1c2ccc(-c3ccc(C#N)cc3)cc2[C@H]2[C@H](CCN2S(=O)(=O)c2ccc(F)cc2)[C@H]1CO`, for which the activity change, negative = cytotoxicity in assay [1] (at 26 µM (top of the series)) was 20.9% (inactive).
For the compound `CC[C@@]1(O)C(=O)OCc2c1cc1n(c2=O)Cc2cc3c(CN(C)C)c(O)ccc3nc2-1`, in assay [2], the AC35 is 2.2 µM.
On the same count and under the same terms, as for `CCOC(=O)CCNc1cc(N2CCc3ccccc3CC2)nc(-c2ccccn2)n1`, the figure is 16.5 µM.
On the same count and under the same terms, the figure for `Cc1nc(Nc2ncc(C(=O)Nc3c(C)cccc3Cl)s2)cc(N2CCN(CCO)CC2)n1` is 12.5 µM.
On to `COc1cccc(S(=O)(=O)N2CC[C@@H]3[C@@H](CO)Nc4ccc(-c5ccc(C#N)cc5)cc4[C@@H]32)c1`, for which the activity change, negative = cytotoxicity in assay [1] (at 8 µM (top of the series)) is 25.7% (inactive).
As to `COc1ccc(S(=O)(=O)N2CC[C@@H]3[C@@H](CO)Nc4ccc(-c5cccc(C#N)c5)cc4[C@@H]32)cc1`, the AC35 in assay [2] is 14.9 µM.
As for `CCN(CCO)CCCOc1ccc2c(Nc3cc(CC(=O)Nc4cccc(F)c4)[nH]n3)ncnc2c1`, in assay [1] (at 0.8 µM (top of the series)), the activity change, negative = cytotoxicity is 6.31% (inactive).
On to `C[C@@]1(C(=O)Nc2ccc(F)nc2)CCCN1c1nc(Nc2cc(C3CC3)[nH]n2)c2cccn2n1`, for which the activity change, negative = cytotoxicity in assay [1] (at 12 µM (top of the series)) was -31.6% (inactive).
For the compound `Cc1ccc([N+](=O)[O-])cc1S(=O)(=O)N(C)C`, the activity change, negative = cytotoxicity in assay [1] (at 26 µM (top of the series)) was -2.85% (inactive).
As to `COc1ccc(S(=O)(=O)N2CC[C@@H]3[C@@H](CO)N(C)c4ccc(-c5ccc(F)cc5)cc4[C@@H]32)cc1`, in assay [1] (at 26 µM (top of the series)), the activity change, negative = cytotoxicity is -2.59% (inactive).
For `Nc1ccn([C@@H]2O[C@H](CO)[C@H](O)C2O)c(=O)n1` (some centres undefined), the AC35 in assay [2] was 3.04 µM.
Same read-out and setting: as for `N#CC1=C(N)Oc2ccc3ccccc3c2C1c1cccc(F)c1` (centres undefined), the figure is 16.4 µM.
`Clc1ccccc1-c1nnc2n1N=C(c1ccc3c(c1)OCO3)CS2`: the activity change, negative = cytotoxicity in assay [1] (at 26 µM (top of the series)) was -25.1% (inactive).
Regarding `COc1ccc(S(=O)(=O)N2CC[C@@H]3[C@@H](CO)Nc4ccc(-c5ccc(C#N)cc5)cc4[C@@H]32)cc1`, in assay [2], the AC35 is 12.2 µM.
The same measure, in the same setting: as for `COc1ccc(-c2cc(NC=O)c3ncc(-c4ccc(OC)c(OC)c4)n3c2)cc1`, the figure is 3.25 µM.
Consider `COc1ccc(C2C(C#N)=C(N)Oc3cc(N)ccc32)cc1` (centres undefined), for which the activity change, negative = cytotoxicity in assay [1] (at 26 µM (top of the series)) was -5.71% (inactive).
Same read-out and setting: the figure for `COc1cc(Nc2ncc3c(n2)-c2ccc(Cl)cc2C(c2c(F)cccc2OC)=NC3)ccc1C(=O)O` is -12.9% (inactive).
Take `COc1ccc(C(=O)CC2(O)C(=O)Nc3c(Cl)ccc(Cl)c32)cc1` (centres undefined): the AC35 in assay [2] is 8.13 µM.
On to `COc1ccccc1C1C(C#N)=C(N)Oc2cc(N)ccc21` (centres undefined), for which the activity change, negative = cytotoxicity in assay [1] (at 26 µM (top of the series)) was 4.04% (inactive).
On the same count and under the same terms, the figure for `O=C(Nc1c(Cl)cncc1Cl)c1ccc(OC(F)F)c(OCC2CC2)c1` is 5.78% (inactive); for `CCC(C)(C)C(=O)O[C@H]1C[C@@H](C)C=C2C=C[C@H](C)[C@H](CC[C@@H]3C[C@@H](O)CC(=O)O3)[C@H]21` it is 1.04% (inactive).
`Cc1cc(Nc2cc(N3CCN(C)CC3)nc(Sc3ccc(NC(=O)C4CC4)cc3)n2)n[nH]1`: in assay [2], the AC35 is 8.49 µM.
The same measure, in the same setting: the figure for `COc1ccc(-c2ccc3c(c2)[C@H]2[C@H](CCN2S(=O)(=O)c2ccc(OC)cc2)[C@@H](CO)N3)cc1` is 21.2 µM.
On the same count and under the same terms, the figure for `COc1ccccc1-c1nnc2n1N=C(c1ccc(O)c(O)c1)CS2` is 19.2 µM.
With `COc1cc([C@@H]2c3cc4c(cc3[C@@H](O[C@@H]3O[C@@H]5CO[C@@H](C)O[C@H]5[C@H](O)[C@H]3O)[C@H]3COC(=O)[C@H]23)OCO4)cc(OC)c1O`, the activity change, negative = cytotoxicity in assay [1] (at 1.35 µM (top of the series)) was -5.5% (inactive).
As for `COC(=O)c1ccc(C2C(C#N)=C(N)Oc3cc(N)ccc32)cc1` (centres undefined), the activity change, negative = cytotoxicity in assay [1] (at 26 µM (top of the series)) is 6.98% (inactive).
Same read-out and setting: as for `N#CC1=C(N)Oc2cc(N)ccc2C12C(=O)Nc1ccc(Br)cc12` (centres undefined), the figure is -10.7% (inactive); as for `N#CC1=C(N)Oc2cc(N)ccc2C1c1ccc2ccccc2c1` (centres undefined), -25.4% (inactive).
On to `O=C(c1cc(Cc2n[nH]c(=O)c3ccccc23)ccc1F)N1CCN(C(=O)C2CC2)CC1`, for which, in assay [1] (at 110 µM (top of the series)), the activity change, negative = cytotoxicity was -17.3% (inactive).
On to `CN1c2ccc(-c3ccc(C#N)cc3)cc2[C@H]2[C@H](CCN2S(=O)(=O)c2cccc(F)c2)[C@H]1CO`, for which the activity change, negative = cytotoxicity in assay [1] (at 26 µM (top of the series)) is -20.9% (inactive).
Regarding `N#CC1=C(N)Oc2cc(N)ccc2C1c1cccc(Br)c1` (centres undefined), the activity change, negative = cytotoxicity in assay [1] (at 26 µM (top of the series)) was -3.92% (inactive).
Same read-out and setting: as for `Cc1ccc(S(=O)(=O)N2CC[C@@H]3[C@@H](CO)Nc4ccc(-c5ccc(C#N)cc5)cc4[C@@H]32)cc1`, the figure is -7.83% (inactive).
On the same count and under the same terms, as for `COc1cc(C2C(C#N)=C(N)Oc3cc(N(C)C)ccc32)cc2c1OCO2` (centres undefined), the figure is -11.7% (inactive).
Turning to `COc1ccc(NC(=O)Nc2ccc3c(c2)C(=O)N([C@@H](C)CO)C[C@H](C)[C@H](CN(C)Cc2ccc4c(c2)OCO4)O3)cc1`, the activity change, negative = cytotoxicity in assay [1] (at 12 µM (top of the series)) was -13.2% (inactive).
Take `COc1ccc(S(=O)(=O)N2CC[C@@H]3[C@H](CO)Nc4ccc(-c5ccc(C#N)cc5)cc4[C@@H]32)cc1`: the activity change, negative = cytotoxicity in assay [1] (at 26 µM (top of the series)) is -32.1% (inactive).
For `CC[C@]1(O)CC2CN(CCc3c([nH]c4ccccc34)[C@@](C(=O)OC)(c3cc4c(cc3OC)N(C=O)[C@H]3[C@@](O)(C(=O)OC)[C@H](OC(C)=O)[C@]5(CC)C=CCN6CC[C@]43[C@@H]65)C2)C1` (some centres undefined), in assay [1] (at 0.8 µM (top of the series)), the activity change, negative = cytotoxicity is -12.1% (inactive).
For the compound `COc1ccccc1-c1nnc2n1N=C(c1ccc3c(c1)OCO3)CS2`, in assay [1] (at 26 µM (top of the series)), the activity change, negative = cytotoxicity was -11.4% (inactive).
On the same count and under the same terms, as for `CCCCc1ccc2nc(NC(=O)OC)[nH]c2c1`, the figure is -18.5% (inactive).
`COc1ccc(OC)c(-c2nnc3n2N=C(c2ccc(OC)c(OC)c2)CS3)c1`: the activity change, negative = cytotoxicity in assay [1] (at 12 µM (top of the series)) was -16.5% (inactive); in assay [1] (at 26 µM (top of the series)), -21.2% (inactive).
As for `CN(C(=O)CCCOc1ccc2[nH]c(=O)ccc2c1)C1CCCCC1`, in assay [1] (at 26 µM (top of the series)), the activity change, negative = cytotoxicity is -11.4% (inactive).
The same measure, in the same setting: the figure for `COc1ccccc1S(=O)(=O)N1CC[C@@H]2[C@@H](CO)Nc3ccc(-c4ccc(C#N)cc4)cc3[C@@H]21` is -11.4% (inactive).
Still for that read-out and setting: as for `Cc1c([C@H](C(Cl)Cl)[C@H](O)[C@H]2C[C@H](C)C(=O)O2)ccc2c1C(=O)[C@H]1[C@H]2C[C@@H](Br)[C@@]23O[C@@H](CO[C@H]2O)C[C@]13C`, the figure is -19.2% (inactive); as for `Cc1ccc(C2C(C#N)=C(N)Oc3cc(N)ccc32)cc1` (centres undefined), 1.29% (inactive).
Turning to `O=P1(NCCCl)OCCCN1CCCl` (centres undefined), in assay [1] (at 50 µM (top of the series)), the activity change, negative = cytotoxicity is 7.58% (inactive).
Turning to `C[C@]1(c2nc3c(C(N)=O)cccc3[nH]2)CCCN1`, the activity change, negative = cytotoxicity in assay [1] (at 26 µM (top of the series)) is -5.99% (inactive).
The same measure, in the same setting: the figure for `N#CC1=C(N)Oc2cc(N)ccc2C1c1ccccc1Cl` (centres undefined) is -2.14% (inactive).

The record behind these values is PubChem BioAssay AID743471 (Broad Institute, 2014).
